The results in this text go back to patent US12714106B2 (Bayer Aktiengesellschaft, priority 2020, dated 2026).

Common to all, as to experiment: Post-emergence greenhouse herbicide test, visual rating
Holding throughout (format): in vivo

Assay [1] concerns MATIN (Matricaria inodora). The following applies: post-emergence, 21 days after application. Here is the method:
(§1) Seeds of grass and broadleaf weeds were sown in pots (diameter: 7 cm) filled with a sandy loam soil. Following germination the plants were grown under optimal conditions up to a growth stage of BBCH 11 to 14 depending on species.
(§2) The applications were performed by post emergence treatments on the planted pots using a spray volume of 300 L water per hectare. The herbicides were applied alone and in combination as described.
(§3) The trial was conducted in the greenhouse ensuring optimal growing conditions.
(§4) The herbicidal effects were assessed 21 days following application by visual ratings comparing treated and untreated plants (0%=no effect to 100%=complete die-off).
(§5) The compounds of the formula (Ia), (Ib) and (I) were formulated as WP (wettable powder) formulation.
(§6) • BBCH=the BBCH code provides information about the morphological development stage of a plant. Officially, the abbreviation denotes the Biologische Bundesanstalt, Bundessortenamt and Chemische Industrie [Federal Biological Institute for Agriculture and Forestry, Federal Office for Crop Plant Varieties and Chemical Industry]. The range of BBCH 00-10 denotes the germination stages of the seeds until surface penetration. The range of BBCH 11-25 denotes the leaf development stages until stocking (corresponding to the number of tillers or side-shoots). In the Trials, the Following Biotypes of Broad-Leaved Weeds and Weed Grasses were Used: • ALOMY—sensitive (Alopecurus myosuroides) sensitive to customary herbicidally active compounds. • ALOMY_R (resistant) (Alopecurus myosuroides) resistant to herbicidally active compounds of the HRAC groups A and B; population mixture of field origin having increased metabolic resistance (IMR) and some target site resistance (TSR). • LOLRI—sensitive (Lolium rigidum) sensitive to customary herbicidally active compounds. • LOLRI_R (resistant) (Lolium rigidum) resistant to herbicidally active compounds of the HRAC groups A and B; population mixture of field origin having increased metabolic resistance (IMR) and some target site resistance (TSR). • AMAPA_R (resistant) (Amaranthus palmeri) resistant to herbicidally active compounds of the HRAC groups A and B; population mixture of field origin having increased metabolic resistance (IMR) and some target site resistance (TSR). • CHRVI (Chloris virgate) feather finger grass • KCHSC (Kochia scoparia) Mexican burning bush • MATIN (Matricaria inodora) false chamomile • POLCO (Polygonum convolvulus) black knotweed • ABUTH (Abutilon theophrasti) china jute • AMAPA (Amaranthus palmeri) palmer amaranth • BIDPI (Bidens pilosa) common blackjack • CHEAL (Chenopodium album) common lambsquarters • EPHHL (Euphorbia heterophylla) wild spurge • XANST (Xanthium strumarium) large cocklebur • EMEAU (Emex australis)—Cathead • GALAP (Gallium aparine)—Cleaver
(§7) The synergistic herbicidal activity was calculated using Colby's formula (cf. S. R. Colby; Weeds 15 (1967), 20-22): […]

The test system of assay [2] is EPHHL (Euphorbia heterophylla). The following applies: post-emergence, 21 days after application. Here is the method:
as §1, §2, §3, §4, §5, §6, §7

In assay [3] the test system is ABUTH (Abutilon theophrasti). The conditions noted are these: post-emergence, 21 days after application. Here is the method:
as §1, §2, §3, §4, §5, §6, §7

A further assay has as its system GALAP (Gallium aparine). The following applies: 50 g/ha; post-emergence; 21 days after application. Here is the method:
as §1, §2, §3, §4, §5, §6, §7

In assay [4] the test system is POLCO (Polygonum convolvulus). The following applies: 12.5 g/ha; post-emergence; 21 days after application. Here is the method: as §1, §2, §3, §4, §5, §6, §7
For assay [5], the system named is CHEAL (Chenopodium album). The conditions noted are these: post-emergence, 21 days after application. Here is the method: as §1, §2, §3, §4, §5, §6, §7
A further assay deals with BID PI (Bidens pilosa). The following applies: 25 g/ha single isomer; post-emergence; 21 days after application. Here is the method:
as §1, §2, §3, §4, §5, §6, §7

Assay [6] has as its system XANST (Xanthium strumarium). The following applies: post-emergence, 21 days after application. Here is the method: as §1, §2, §3, §4, §5, §6, §7
Assay [7] concerns LOLRI - sensitive (Lolium rigidum). The following applies: post-emergence, 21 days after application. Here is the method:
as §1, §2, §3, §4, §5, §6, §7

In a further assay the test system is KCHSC (Kochia scoparia). The following applies: 12.5 g/ha; post-emergence; 21 days after application. Here is the method:
as §1, §2, §3, §4, §5, §6, §7

The subject of another assay is EMEAU (Emex australis). The conditions noted are these: 50 g/ha; post-emergence; 21 days after application. Here is the method:
as §1, §2, §3, §4, §5, §6, §7

Assay [8] has as its system AMAPA-R (resistant) (Amaranthus palmeri). The conditions noted are these: 25 g/ha single isomer; post-emergence; 21 days after application. Here is the method:
as §1, §2, §3, §4, §5, §6, §7

The subject of the next assay is CHRVI (Chloris virgate). The conditions noted are these: 12.5 g/ha; post-emergence; 21 days after application. Here is the method:
as §1, §2, §3, §4, §5, §6, §7

The subject of assay [9] is LOLRI_R (resistant) (Lolium rigidum). The following applies: post-emergence, 21 days after application. Here is the method:
as §1, §2, §3, §4, §5, §6, §7

Take `C=C[C@]1(C(=O)N[C@@H]2CO[C@H](C(=O)OC)C2)CC(c2cc(F)cc(F)c2)=NO1` [(Ib), methyl(2S,4S)-4-[[(5S)-3-(3,5-difluorophenyl)-5-vinyl-4H-isoxazole-5-carbonyl]amino]-tetrahydrofuran-2-carboxylate]: the “MATIN Observed” value in [1] (12.5 g/ha), in [1] (25 g/ha) and in assay [1] (50 g/ha) was 0% in each case. Also, the “EPHHL Observed” value in assay [2] (25 g/ha single isomer) and in [2] (50 g/ha single isomer) was 35% in each case. In addition, the figures for the “ABUTH Observed” value in assay [3] (25 g/ha single isomer) and in [3] (50 g/ha single isomer) were 10% and 20%, respectively. Moreover, the “GALAP Observed” value in the assay with GALAP (Gallium aparine) is recorded as 35%. Also, the “POLCO Observed” value in assay [4] is on record as 40%. The “CHEAL Observed” value in assay [5] (25 g/ha single isomer) was found to be 20%; in [5] (50 g/ha single isomer) it was 60%. Also, the “BID PI Observed” value in the assay with BID PI (Bidens pilosa) is given as 10%. The “XANST Observed” value in assay [6] (25 g/ha single isomer) was 0%; in assay [6] (50 g/ha single isomer) it was 10%; in [6] (100 g/ha single isomer), 20%. Also, the “LOLRI Observed” value in [7] (6.25 g/ha) and in assay [7] (12.5 g/ha) was 0% each time. The “KCHSC Observed” value in the assay on KCHSC (Kochia scoparia) is reported as 40%. Moreover, the “EMEAU Observed” value in the assay with EMEAU (Emex australis) is given as 45%. In addition, in assay [8], the “AMAPA-R Observed” value is 25%. Further, the “CHRVI Observed” value in the assay on CHRVI (Chloris virgate) was found to be 20%. Besides, the “LOLRI_R Observed” value in assay [9] (6.25 g/ha), in assay [9] (12.5 g/ha) and in [9] (25 g/ha) was 0% in each case.
